In assay [1] the target is T1, biotinylated human FN-67B89 (Homo sapiens, UniProt P02751).
T1 construct: flanked by its surrounding type III domains (FN-67B89, amino acid G1080-E1455); made in house; host or cells: E. coli BL21 (DE3), pET-21a
The assay can be described thus: Surface plasmon resonance, binding kinetics to FN-67B89. Conditions: for binding of tag-free variant to FN-67B89 by SPR: Fig 2d, multi-cycle kinetics, 50 to 1000 nM. As to the method:
Binding kinetics of monomeric and trimeric cystine-knot miniprotein ligands to its target protein was determined using a Biacore T-100 device (GE Healthcare Life Science) with PBS-T as running buffer. For this, the biotinylated FN-67B89 protein (200–300 µg/mL) was captured by binding to a flow cell of an SA sensor chip (GE Healthcare Life Science). To analyze monomeric ligands, an immobilized target density of maximum 750 response units (RU) was applied and for trimeric variants a RU of maximum 400 was aimed for. Binding analysis of monomeric ligands was performed using a multi-cycle kinetic method with concentrations ranging from 50 to 4000 nM. A cycle started with an association period of 90 s, followed by a dissociation period of 420 s and a final regeneration step. Kinetic measurement was conducted applying a flow rate of 20 µL/min. Trimeric variants were analyzed under the same association and dissociation conditions, but using the single-cycle kinetic measurement mode in a constant flow of […]. In this case the analyte concentration was between 1.25 and 10 nM. Binding kinetics and steady-state analysis were calculated using a global kinetic fit model (1:1 Langmuir, Biacore T-100 Evaluation Software; GE Healthcare Life Science).
A general note: In SPR one partner is held on a chip, and binding of the other changes the refractive index at the surface.

A further assay concerns FN-B. The assay is described as follows: Hit identification ranking score (FN-B to BSA ELISA signal normalized to expression rate). The settings on record: signal (FN-B) to noise (BSA) ELISA ratio normalized to expression rate of Trx-cystine-knot miniprotein; MCopt 1.0 library. The format is binding, human. For orientation: ELISA stands for enzyme-linked immunosorbent assay.

Assay [2] relates to FN-6789 (type III domains 6–9 without EDB). The assay is described as follows: ELISA binding of Trx-cystine-knot miniproteins to off-target control FN-6789. The settings on record: FN-6789, streptavidin, milk powder, BSA. Further details: species or system human.
Assay [3] deals with EDB in U-87 MG glioblastoma xenograft tumor sections. The assay is described as follows: Immunofluorescence staining of U-87 MG tumor tissue sections. Further details: species or system human U-87 MG grown as mouse xenograft. Conditions: biotinylated miniprotein tetramerized with Cy3-labeled streptavidin, 6 µm sections. The protocol: Cryopreserved tumor pieces were cut in 6-µm-thick sections, fixed in ice cold acetone for 5 min, and air-dried. Slides were then blocked in PBS with 3% BSA at RT for 5 min. For staining of EDB, 1 µg of the respective biotinylated cystine-knot miniprotein was incubated with 2.9 µg streptavidin-Cy3 conjugate (Rockland Immunochemicals) at RT for 30 min. The pre-formed complex or 0.1 µg AF680-(MC-FN-010)3 and anti-mouse CD31 antibody (RB-10333-P1, Thermo Fisher) diluted 1:100 in PBS with 1% BSA was then added to the tumor sections and incubated for 30 min at 37 °C. Afterwards, slides were washed three times with PBS containing 1% BSA. CD31 staining of sections treated with pre-formed complex was performed with a rat anti-mouse CD31 IgG antibody (102416; BioLegend) diluted 1:100 in PBS with 1% BSA for 30 min at 37 °C and detected with a secondary […] IgG-Cy3 antibody (111-165-003; Jackson ImmunoResearch) diluted 1:400 in PBS with 1% BSA for 30 min at 37 °C. After three washing steps in PBS, cell nuclei were stained with Höchst 33342 (Thermo Fisher Scientific) diluted 1:5000 in PBS for 30 min at RT. Slides were washed again as described above and covered with coverslips in a thin layer of mounting medium (Dako). Images were captured with a Zeiss Apotome microscope (Carl Zeiss) and analyzed with ZEN software (Carl Zeiss).

Where [4] appears, read: SPR Biacore T-100, biotinylated human FN-67B89 on streptavidin chip, PBS-T, 1:1 Langmuir fit.

Where no end group is shown, it is not given here. The star is where a group is joined. Biotin = O=C1N[C@H]2[C@H](CS[C@H]2CCCCC(=O)*)N1

4 substances from article PMC6962393, “Targeting the tumor vasculature with engineered cystine-knot miniproteins” (Nature Communications, 2020) can be followed below.

As usually defined, the Kd is the equilibrium constant for the complex coming apart. The low end stands for higher affinity, the high end for lower affinity.

T1 sequence (P02751 1080-1546): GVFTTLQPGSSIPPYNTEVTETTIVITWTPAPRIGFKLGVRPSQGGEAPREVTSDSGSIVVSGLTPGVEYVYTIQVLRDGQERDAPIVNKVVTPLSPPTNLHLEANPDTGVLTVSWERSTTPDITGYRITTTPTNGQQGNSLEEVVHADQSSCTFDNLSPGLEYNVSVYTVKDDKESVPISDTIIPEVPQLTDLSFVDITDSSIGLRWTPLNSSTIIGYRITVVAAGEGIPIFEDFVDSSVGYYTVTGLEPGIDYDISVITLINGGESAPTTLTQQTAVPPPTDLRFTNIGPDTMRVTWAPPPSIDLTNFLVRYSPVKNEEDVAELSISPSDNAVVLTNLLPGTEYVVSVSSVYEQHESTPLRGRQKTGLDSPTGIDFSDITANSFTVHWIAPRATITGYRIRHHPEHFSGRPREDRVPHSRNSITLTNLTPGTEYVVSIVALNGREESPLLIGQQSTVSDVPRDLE
Protocol for FN-B: Single colonies were picked, sequenced, and transferred to a 96-well plate for small-scale expression in 1 mL autoinduction medium (MagicMedia™; Thermo Fisher Scientific). Protein production was conducted overnight at 30 °C and 220 rpm. Cells were harvested by centrifugation at 3000 × g for 15 min, lysed via incubation in buffer (20 mM Tris, 2 mM MgCl2, 20 mM NaCl, pH 8) containing 0.1 mg/mL lysozyme (Merck Millipore) and 5 U/mL benzonase (Merck Millipore) combined with a freeze–thaw cycle, and heated for 10 min at 80 °C. After a final centrifugation (3000 × g, 15 min, 4 °C) to remove cell debris, the supernatant was collected for E-PAGE™ and binding analysis. E-PAGE^TM (Life Technologies) was used as a high throughput gel system to simultaneously analyze 96-probes in parallel for a quantification of produced and heat-purified proteins. E-PAGE^TM analysis was performed according to the manufacturer's instructions. ELISA was used as a technique to analyze protein–protein interactions. […] The wells were washed three times with PBS-T (1× PBS with 0.1% (w/v) Tween-20), blocked with 1× Casein buffer (Sigma Aldrich) diluted in PBS for 2 h at RT, and washed again as described. 20 µL of supernatant containing the respective heat-purified fusion protein were added to 80 µL PBS-T or 200 nM of MC-Myc-010 fusion protein (wells with anti-c-myc antibody) diluted in PBS-T, applied to the cavities, and incubated for 1 h at 4 °C. After three times of washing with PBS-T, binding of the respective variant was detected with a horseradish peroxidase (HRP)-conjugated anti-S-tag antibody (ab18589 or ab19324; Abcam) 1:2000 diluted in PBS. Enzymatic reaction was measured with TMB as a chromogenic substrate and stopped with 0.2 M HCl after approximately 5 min. The measurement of absorbance at 450 nm was performed using an Infinite M200 PRO Microplate Reader (Tecan). […]
Ranking scores were calculated on the basis of the signal (FN -B) to noise (BSA)
ratios determined via ELISA and were further normalized to the expression rate of Trx -cystine-knot […]

For the substance “PMCTQRKNRIRLCRRDSDCTGACICRGNGYCG (also: bicyclic or more (positions not given here)) [MC-FN-010]”, in assay [1], the “binding of tag-free variant to FN-67B89 by SPR” value is listed as “detectable binding activity”. Also, in assay [1] (SPR), the “affinity / binding constant towards biotinylated FN-67B89 (range in words)” value is “single-digit micromolar range”. In assay [1] (setting [4]), this substance showed an equilibrium dissociation constant (Kd) of 1580 nM and a Koff of 0.07831 s⁻¹. The Kon in assay [1] (SPR Biacore T-100, biotinylated human FN-67B89 on streptavidin chip, PBS-T, 1:1 Langmuir fit, monomers multi-cycle, trimers single-cycle) was found to be 49500 M⁻¹ s⁻¹. Moreover, the Ranking value with FN-B lay in the range of 2.6 to 0.6.

For “WTCTKKYPNTISCRRDSDCRVTCICRGNGYCG (also: bicyclic or more (positions not given here)) [MC-FN-020, cystine-knot miniprotein clone from MCopt 1.0 library, without R-I/V-R-(L) motif]”, the “binding to off-target and control proteins” value in assay [2] is “strong binding”. Besides, in the assay with FN-B, the Ranking value is 3.7 to 1.7.

Regarding “MC-FN-0115-bio: biotinylated MC-FN-0115, tetramerized with Cy3-labeled streptavidin for staining (Biotin-PMCTQRANRIAACRRDSDCTGACICRGNGYCG; also: cystine-knot disulfides, pairing not given here)”, the “staining of U-87 MG tumor sections” value in assay [3] is “did not stain”.

On to “WKCQPTNGYRIRCRRDSDCPGDCICRGNGYCG (also: bicyclic or more (positions not given here)) [MC-FN-030, cystine-knot miniprotein clone from MCopt 1.0 library]”, for which, in assay [1], the “binding of tag-free variant to FN-67B89 by SPR” value is “no detectable binding”. The Ranking value in the assay with FN-B is reported as 2.7 to 1.6.
